Data as given in patent US5045566A, “Novel imidate insecticides” (ICI Americas Inc., priority 1989, dated 1991).

How the values were obtained:
Assay type in all cases: in vivo
[1] = tested on: Aster Leafhopper [Macrosteles fascifrens (Stal)]; experiment: Aster leafhopper on dipped oat seedlings (LH), 48 hours; details: percent in solution, adults/nymphs
Procedure: The compounds in Tables 1 and 2 above were tested for insecticidal activity using the following testing procedures. LC50 values, based on the results of these tests and calculated according to dosage-mortality curves, are expressed in Table 3.
Aster Leafhopper [Macrosteles fascifrens (Stal)]
Oat seedlings (Avena sp) were grown in a commercial potting soil in cups. When the plants were approximately 10 cm tall they were thinned to three plants per cup and dipped for 2-3 seconds in 50-50 acetone-water solutions of the test compounds. When the plants had dried, a clear plastic tube was placed over them and the bottom end pressed into the cup. Ten aster leafhopper adults/nymphs were then placed in each tube and the tops of the tubes covered with white organdy cloth. Mortality counts were made after 48 hours. Test concentrations ranged from 0.05% down to that at which 50% mortality occurred. The LC50 values are expressed below in Table 3 under the heading "LH" in terms of the percent of the test compound in the solution.

[2] = tested on: Black Bean Aphid [Aphis fabae (Scop.)]; experiment: Black bean aphid spray test on nasturtium (BBA), 48 hours; details: percent of test compound in sprayed solution
Method in brief: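 LC50, given as percent test compound in the sprayed liquid, was calculated from dosage-mortality curves using concentrations from 0.05% downward. Sprays in 50:50 acetone-water went to runoff on ~5 cm nasturtiums carrying 25-50 aphids of mixed ages, one day after infestation. Deaths were counted 48 h later under greenhouse conditions.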

[3] = tested on: Housefly [Musca domestica]; experiment: Housefly contact mortality in dishes (HF), 48 hours; details: μg of test compound per 25 female flies
Method in brief: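 Acetone solutions (with 0.01% peanut oil) dried onto dish bottoms, then 25 female flies, 1-2 days old, caged over the residue with sugar water. Mortality scored at 48 hours; LC50 from dosage-mortality curves, in μg per 25 female flies, top level 100 μg.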

[4] = tested on: Tobacco Budworm [Heliothis virescens (Fabricius)] eggs; experiment: Tobacco budworm eggs (TBW-E); details: percent in solution; 2-day old eggs
Method in brief: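 Paper-towel patches of 2-day-old eggs dipped in acetone solutions of compound (0.1% downward), held on larval rearing medium at 78° F. Mortality scored once all control eggs had hatched and larvae were feeding; LC50 from dosage-mortality curves, expressed as percent compound in solution.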

[5] = tested on: Cabbage Looper [Trichoplusia ni (Hubner)]; experiment: Cabbage looper leaf dip (CL), 3-5 days; details: percent in solution, second-instar larvae
Method in brief: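 Squash cotyledons dipped 2-3 s in compound in 50-50 acetone-water, dried, then infested with 5 second-instar larvae and held at high humidity. Mortality scored after 3-5 days at concentrations from 0.1% downward. LC50 from dosage-mortality curves, expressed as percent compound in solution.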

[6] = tested on: Maize weevil [Sitophilus zeamais (Motschulsky)]; experiment: Maize weevil on dipped corn seeds (MW), 48 hours; details: percent in solution, adult weevils
Method in brief: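 LC50, given as percent of compound in dipping solution, comes from dosage-mortality curves over concentrations descending from 0.01%. Four corn seeds soaked 2-3 s in 50:50 acetone:water solution were dried and held with 10 adult weevils, about 25° C, mortality read after 48 h.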

SMILES | LC50 LH [1] [%] | LC50 BBA [2] [%] | LC50 HF [3] [µg] | LC50 TBW E (eggs) [4] [%] | LC50 CL [5] [%] | LC50 MW [6] [%]
CCC(=Nc1ccc(Cl)cc1)OCc1cccc(Oc2ccccc2)c1 [Compound 11] | > 0.05 | 0.01 | 6 | > 0.1 | 0.025 | > 0.01
CC(C)C(=Nc1cc(Cl)ccc1Cl)OCc1cccc(Oc2ccccc2)c1 [Compound 13] | > 0.05 | 0.003 | > 100 | > 0.1 | 0.014 | > 0.01
CC(C)C(=Nc1ccccc1Cl)OCc1cccc(Oc2ccccc2)c1 [Compound 17] | > 0.05 | 0.03 | 75 | > 0.1 | 0.03 | > 0.01
N#CC(=Nc1ccc(Cl)cc1)OCc1cccc(Oc2ccccc2)c1 [Compound 21] | > 0.05 | > 0.1 | 7 | > 0.1 | 0.02 | > 0.01
CC(C)(C)C(=Nc1ccc(Cl)c(Cl)c1)OCc1cccc(Oc2ccccc2)c1 [Compound 25] | > 0.05 | > 0.1 | > 100 | > 0.1 | 0.01 | > 0.01
CC(C)C(=Nc1ccccc1)OCc1cccc(Oc2ccccc2)c1 [Compound 43] | > 0.05 | 0.001 | 7 | 0.05 | 0.018 | > 0.01
Fc1ccc(N=C(OCc2cccc(Oc3ccccc3)c2)C(F)F)cc1 [Compound 50] | > 0.05 | 0.01 | 43 | > 0.05 | 0.02 | > 0.01
CC(C)C(=Nc1ccccc1C(F)(F)F)OCc1cccc(Oc2ccccc2)c1 [Compound 72] | > 0.05 | > 0.05 | > 100 | > 0.1 | 0.08 | > 0.01
CCS(=O)(=O)c1ccc(N=C(OCc2cccc(Oc3ccccc3)c2)C(C)C)cc1Cl [Compound 112] | > 0.05 | 0.05 | > 100 | > 0.1 | 0.025 | > 0.01
Fc1ccc(N=C(OCc2cccc(Oc3ccccc3)c2)C(F)(F)C(F)(F)F)cc1Cl [Compound 117] | 0.0003 | > 0.05 | 55 | > 0.1 | 0.006 | > 0.01
CC(C)C(=Nc1ccc(F)c(Cl)c1)OCc1cccc(Oc2ccccc2F)c1 [Compound 119] | 0.0008 | > 0.05 | 27 | 0.048 | 0.0007 | > 0.01
CC1(C)C(C(=Nc2ccc(F)c(Cl)c2)OCc2cccc(Oc3ccccc3)c2)C1(C)C [Compound 124] | > 0.05 | > 0.05 | 17 | > 0.1 | 0.01 | > 0.01
CC(C)C(=Nc1cccc(Br)c1)OCc1cccc(Oc2ccccc2)c1 [Compound 128] | 0.003 | 0.001 | 4.5 | 0.037 | 0.005 | > 0.01
CC(C)C(=Nc1ccccc1Br)OCc1cccc(Oc2ccccc2)c1 [Compound 132] | > 0.05 | 0.0025 | 65 | > 0.1 | 0.025 | > 0.01
CSc1ccc(N=C(OCc2cccc(Oc3ccccc3)c2)C(C)C)cc1 [Compound 142] | > 0.05 | 0.001 | 15 | 0.1 | 0.005 | > 0.01
COc1cccc(N=C(OCc2cccc(Oc3ccccc3)c2)C(C)C)c1 [Compound 143] | 0.006 | 0.002 | 10 | < 0.1 | 0.002 | > 0.01
COC(=O)c1ccc(N=C(OCc2cccc(Oc3ccccc3)c2)C(C)C)cc1 [Compound 151] | > 0.05 | 0.006 | 38 | > 0.1 | 0.009 | > 0.01
CC(C)C(=Nc1ccc(C(C)(C)C)cc1)OCc1cccc(Oc2ccccc2)c1 [Compound 153] | 0.0005 | 0.003 | > 100 | 0.1 | 0.004 | > 0.01
Cc1cccc(N=C(OCc2cccc(Oc3ccccc3)c2)C(C)C)c1 [Compound 155] | > 0.05 | 0.001 | 9 | 0.06 | 0.004 | > 0.01
Cc1ccc(N=C(OCc2cccc(Oc3ccccc3)c2)C(C)C)cc1 [Compound 156] | > 0.05 | 0.001 | 10 | 0.05 | 0.004 | > 0.01
COc1ccc(N=C(OCc2cccc(Oc3ccccc3)c2)C(C)C)cc1 [Compound 160] | 0.05 | 0.003 | 7 | 0.09 | 0.005 | > 0.01
CC(C)C(=Nc1ccc(C#N)cc1)OCc1cccc(Oc2ccccc2)c1 [Compound 172] | > 0.05 | > 0.05 | 5 | 0.04 | 0.002 | > 0.01
c1ccc(Oc2cccc(COC(=Nc3ccc4c(c3)OCO4)C3CC3)c2)cc1 [Compound 177] | > 0.05 | 0.01 | 13 | > 0.1 | 0.002 | 0.01
CCC(=Nc1ccc2c(c1)OCO2)OCc1cccc(Oc2ccccc2)c1 [Compound 178, N-(3,4-Methylenedioxyphenyl)-O-(3-phenoxybenzyl)propionimidate] | > 0.05 | 0.05 | 6 | > 0.1 | 0.004 | > 0.01
CC(C)C(=Nc1ccc2c(c1)OCCO2)OCc1cccc(Oc2ccccc2)c1 [Compound 179] | 0.005 | 0.003 | 13 | > 0.1 | 0.004 | > 0.01
CC(C)C(=Nc1ccc(-c2ccccc2)cc1)OCc1cccc(Oc2ccccc2)c1 [Compound 186] | > 0.05 | > 0.05 | > 100 | > 0.1 | 0.008 | > 0.01
CC(C)C(=Nc1ccc(F)c(Cl)c1)OCc1cccc(Oc2ccc(F)c(F)c2)c1 [Compound 217] | > 0.05 | 0.001 | 8 | 0.015 | 0.00006 | 0.0084
CC(C)C(=Nc1ccc2c(c1)OCO2)OCc1cccc(Oc2ccc(Cl)cc2)c1 [Compound 240] | > 0.05 | 0.001 | 14 | 0.04 | 0.0003 | > 0.01
CC(C)C(=Nc1cccc(I)c1)OCc1cccc(Oc2ccc(F)cc2)c1 [Compound 255] | 0.0005 | 0.003 | 16 | 0.075 | 0.00017 | > 0.01
